Measurements reported in patent US20160271149A1, “[…] COMPOUNDS THAT […] PROTEIN ARGININE […] ACTIVITY FOR REDUCING TUMOR CELL PROLIFERATION” (Epinova Therapeutics Corp., priority 2015, published 2016).
“And” between values parts separate entries of the source, which are not always exact repeats. Equal values may be shown once. Each block holds one compound with its values, some of them ahead of it.

Assays:
PRMT5/MEP50 = PRMT5/MEP50 (Homo sapiens, UniProt O14744); experiment: Methyltransferase activity screen and profiling, PRMT5/MEP50, substrate Histone H2A; conditions: for % Enzyme Activity (relative to DMSO controls): PRMT5/MEP50, substrate Histone H2A, single-dose mode, duplicate (Data 1, Data 2), 1 μM SAM, 100 μM; for % Activity / Raw data: PRMT5/MEP50 profiling
PRMT5/MEP50, sequence (O14744 whole entry): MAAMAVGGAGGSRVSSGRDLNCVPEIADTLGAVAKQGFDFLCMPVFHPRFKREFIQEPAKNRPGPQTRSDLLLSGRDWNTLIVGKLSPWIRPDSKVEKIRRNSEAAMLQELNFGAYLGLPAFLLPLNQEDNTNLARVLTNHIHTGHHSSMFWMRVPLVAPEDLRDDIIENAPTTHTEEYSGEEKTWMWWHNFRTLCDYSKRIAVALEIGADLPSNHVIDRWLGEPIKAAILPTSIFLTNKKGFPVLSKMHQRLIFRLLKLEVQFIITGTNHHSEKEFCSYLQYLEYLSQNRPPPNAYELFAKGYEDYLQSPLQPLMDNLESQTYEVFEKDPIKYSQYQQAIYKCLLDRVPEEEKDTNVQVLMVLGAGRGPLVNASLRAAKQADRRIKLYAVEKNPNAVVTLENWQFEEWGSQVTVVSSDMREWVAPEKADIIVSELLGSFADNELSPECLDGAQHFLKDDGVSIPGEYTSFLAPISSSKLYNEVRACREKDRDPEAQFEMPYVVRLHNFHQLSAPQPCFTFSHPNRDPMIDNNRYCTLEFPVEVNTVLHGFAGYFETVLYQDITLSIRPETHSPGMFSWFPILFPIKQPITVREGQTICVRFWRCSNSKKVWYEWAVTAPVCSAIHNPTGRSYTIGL
PRMT5/MEP50, sequence (Q9BQA1 whole entry partner): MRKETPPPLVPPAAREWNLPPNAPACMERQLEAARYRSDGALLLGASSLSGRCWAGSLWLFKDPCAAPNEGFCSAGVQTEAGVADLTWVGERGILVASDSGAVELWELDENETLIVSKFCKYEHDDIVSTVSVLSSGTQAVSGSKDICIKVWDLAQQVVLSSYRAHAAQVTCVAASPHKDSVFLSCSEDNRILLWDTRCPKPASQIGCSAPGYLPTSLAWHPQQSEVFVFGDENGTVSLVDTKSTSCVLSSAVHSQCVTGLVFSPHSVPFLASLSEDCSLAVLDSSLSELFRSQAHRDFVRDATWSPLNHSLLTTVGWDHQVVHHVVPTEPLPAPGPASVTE
Procedure: (§1) A 10 mM DMSO stock solution of each test compound was prepared.
(§2) Compounds were tested in a single-dose mode, in duplicate at the following concentrations.
(§3) Reactions were carried out at 1 μM SAM. The no inhibitor control was set as 100% activity).

PRMT5 = PRMT5 (Homo sapiens, UniProt O14744); experiment: Methyltransferase activity screen, PRMT5, substrate Histone H2A; conditions: PRMT5, substrate Histone H2A, single-dose mode, duplicate (Data 1, Data 2), 1 μM SAM, 100 μM
PRMT5, sequence (O14744 whole entry): as the sequence (O14744 whole entry) above
Procedure: as §1, §2, §3

PRMT1 = PRMT1 (Homo sapiens, UniProt Q99873); experiment: Methyltransferase activity screen, PRMT1, substrate Histone H4; conditions: single-dose mode, duplicate (Data 1, Data 2), 1 μM SAM, 100 μM
PRMT1, sequence (Q99873 whole entry): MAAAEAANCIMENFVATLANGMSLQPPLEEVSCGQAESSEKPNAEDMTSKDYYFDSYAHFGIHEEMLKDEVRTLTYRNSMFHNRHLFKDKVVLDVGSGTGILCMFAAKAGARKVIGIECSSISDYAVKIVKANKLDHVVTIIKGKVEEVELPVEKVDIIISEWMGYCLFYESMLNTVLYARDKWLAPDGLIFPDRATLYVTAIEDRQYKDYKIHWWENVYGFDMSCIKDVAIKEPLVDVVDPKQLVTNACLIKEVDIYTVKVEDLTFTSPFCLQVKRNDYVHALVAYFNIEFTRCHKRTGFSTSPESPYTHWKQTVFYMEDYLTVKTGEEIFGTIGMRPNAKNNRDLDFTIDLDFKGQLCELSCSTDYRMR
Procedure: as §1, §2, §3

PRMT6 = PRMT6 (Homo sapiens, UniProt Q96LA8); experiment: Methyltransferase activity screen, PRMT6, substrate Histone H3; conditions: PRMT6, substrate Histone H3, single-dose mode, duplicate (Data 1, Data 2), 1 μM SAM, 100 μM
PRMT6, sequence (Q96LA8 whole entry): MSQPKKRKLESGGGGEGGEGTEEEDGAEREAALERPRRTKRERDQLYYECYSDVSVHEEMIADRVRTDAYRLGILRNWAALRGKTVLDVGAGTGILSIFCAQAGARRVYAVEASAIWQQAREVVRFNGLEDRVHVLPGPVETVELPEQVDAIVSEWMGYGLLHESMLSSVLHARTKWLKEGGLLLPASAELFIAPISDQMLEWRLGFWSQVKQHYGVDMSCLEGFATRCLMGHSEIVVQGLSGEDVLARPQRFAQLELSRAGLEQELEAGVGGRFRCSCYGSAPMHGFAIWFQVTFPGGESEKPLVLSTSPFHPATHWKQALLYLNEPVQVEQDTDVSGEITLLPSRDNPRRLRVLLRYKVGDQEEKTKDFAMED
Procedure: as §1, §2, §3

TGR5 = biological target: T1, TGR5 (Homo sapiens, UniProt Q8TDU6); conditions: cited from earlier work
T1 sequence (Q8TDU6 1-330): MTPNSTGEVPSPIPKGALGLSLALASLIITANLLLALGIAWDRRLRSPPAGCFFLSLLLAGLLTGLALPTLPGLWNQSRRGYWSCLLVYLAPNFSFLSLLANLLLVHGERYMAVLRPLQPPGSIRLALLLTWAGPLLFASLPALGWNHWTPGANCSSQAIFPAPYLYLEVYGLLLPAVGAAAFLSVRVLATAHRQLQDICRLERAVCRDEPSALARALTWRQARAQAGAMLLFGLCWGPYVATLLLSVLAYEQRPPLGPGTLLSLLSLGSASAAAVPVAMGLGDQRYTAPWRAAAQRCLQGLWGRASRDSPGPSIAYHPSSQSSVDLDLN

PRMTs = experiment: Screen against protein arginine methyltransferases, summary statement
Procedure: as §1, §2, §3

LXRα = biological target: T2, LXRα (Homo sapiens, UniProt Q13133); conditions: human isoform; cited from earlier work
T2 sequence (Q13133 1-447): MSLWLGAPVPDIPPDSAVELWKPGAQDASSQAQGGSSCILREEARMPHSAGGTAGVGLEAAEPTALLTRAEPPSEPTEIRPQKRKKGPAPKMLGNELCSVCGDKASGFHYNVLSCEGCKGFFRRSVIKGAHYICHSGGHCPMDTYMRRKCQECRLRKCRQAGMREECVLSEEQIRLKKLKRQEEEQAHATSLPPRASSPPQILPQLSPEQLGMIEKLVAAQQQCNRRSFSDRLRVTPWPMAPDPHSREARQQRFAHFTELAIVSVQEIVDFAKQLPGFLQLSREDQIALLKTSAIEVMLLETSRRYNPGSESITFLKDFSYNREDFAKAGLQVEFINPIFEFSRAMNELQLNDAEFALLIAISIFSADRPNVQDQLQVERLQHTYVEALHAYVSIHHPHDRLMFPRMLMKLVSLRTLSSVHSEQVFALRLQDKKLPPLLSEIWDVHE

LXR and FXR = conditions: cited from earlier work

- % Enzyme Activity (relative to DMSO controls) (PRMT5/MEP50): 90.97% and 82.32%
- % Enzyme Activity (relative to DMSO controls) (PRMT5): 84.41% and 87.02%
- % Enzyme Activity (relative to DMSO controls) (PRMT1): 100.02% and 92.67%
- % Enzyme Activity (relative to DMSO controls) (PRMT6): 70.12% and 73.79%
Compound: Cc1onc(-c2ccccc2Cl)c1C(=O)N(C)c1ccc(Cl)cc1 [TGR5 agonist, 3-(2-chlorophenyl)-N-(4-chlorophenyl)-N,5-dimethyl-4-isoxazolecarboxamide]
- pEC50, activator of TGR5 (TGR5): 6.8-7.5

Compound: C[C@H](CCC(=O)O)[C@H]1CC[C@H]2[C@@H]3[C@H](O)C[C@@H]4C[C@H](O)CC[C@]4(C)[C@H]3CC[C@]12C [Chenodeoxycholic acid, 3α, 7α-dihydroxy-5β-cholan-24-oic acid]
- direct inhibitory effect on PRMTs (PRMTs): no direct inhibitory effect

- IC50 (PRMT5/MEP50): 84.2 µM
- % Enzyme Activity (relative to DMSO controls) (PRMT5/MEP50; monohydrochloride): 1.54% and 1.23%
- % Activity (PRMT5/MEP50; Conc. 1.00E−04 M): 1.47%
- Raw data (PRMT5/MEP50; Conc. 1.00E−04 M): 6431
- % Activity (PRMT5/MEP50; Conc. 1.11E−05 M): 124.34%
- Raw data (PRMT5/MEP50; Conc. 1.11E−05 M): 544281
- % Activity (PRMT5/MEP50; Conc. 1.23E−06 M): 105.86%
- Raw data (PRMT5/MEP50; Conc. 1.23E−06 M): 463366
- % Activity (PRMT5/MEP50; Conc. 1.37E−07 M): 103.73%
- Raw data (PRMT5/MEP50; Conc. 1.37E−07 M): 454053
- % Activity (PRMT5/MEP50; Conc. 1.52E−08 M): 95.29%
- Raw data (PRMT5/MEP50; Conc. 1.52E−08 M): 417100
- % Activity (PRMT5/MEP50; Conc. 3.33E−05 M): 137.65%
- Raw data (PRMT5/MEP50; Conc. 3.33E−05 M): 602561
- % Activity (PRMT5/MEP50; Conc. 3.70E−06 M): 112.86%
- Raw data (PRMT5/MEP50; Conc. 3.70E−06 M): 494019
- % Activity (PRMT5/MEP50; Conc. 4.12E−07 M): 103.66%
- Raw data (PRMT5/MEP50; Conc. 4.12E−07 M): 453763
- % Activity (PRMT5/MEP50; Conc. 4.57E−08 M): 99.34%
- Raw data (PRMT5/MEP50; Conc. 4.57E−08 M): 434862
- % Activity (PRMT5/MEP50; Conc. 5.08E−09 M): 98.94%
- Raw data (PRMT5/MEP50; Conc. 5.08E−09 M): 433085
- HILLSLOPE (PRMT5/MEP50; Table 4, PRMT5/MEP50 dose-response curve fit): −24.99
- % Enzyme Activity (relative to DMSO controls) (PRMT5; monohydrochloride): 90.29% and 97.35%
- % Enzyme Activity (relative to DMSO controls) (PRMT1; monohydrochloride): 6.93% and 4.55%
- % Enzyme Activity (relative to DMSO controls) (PRMT6; monohydrochloride): 83.29% and 103.66%
Compound: Cl.O=C(O)Cc1cccc(OCCCN(Cc2cccc(C(F)(F)F)c2Cl)CC(c2ccccc2)c2ccccc2)c1 [GW 3965, 3-[3-[[[2-chloro-3-(trifluoromethyl)phenyl]methyl](2,2-diphenylethyl)amino]propoxy]-benzeneacetic acid, monohydrochloride]
- EC50 (LXRα): 0.29 µM
- affinity for LXR and FXR (LXR and FXR): nanomolar affinity

- % Enzyme Activity (relative to DMSO controls) (PRMT5/MEP50): 95.73% and 93.91%
- % Enzyme Activity (relative to DMSO controls) (PRMT5): 106.35% and 105.51%
- % Enzyme Activity (relative to DMSO controls) (PRMT1): 112.72% and 115.42%
- % Enzyme Activity (relative to DMSO controls) (PRMT6): 312.24% and 288.93%
Compound: CC[C@H]1[C@@H](O)[C@@H]2[C@H](CC[C@]3(C)[C@@H]([C@H](C)CCC(=O)O)CC[C@@H]23)[C@@]2(C)CC[C@@H](O)C[C@@H]12 [INT-747, 6α-Ethyl-chenodeoxycholic acid]
